The record followed here is patent publication US12415785B2, “Compound modulators of sting” (CTXT PTY LTD, priority 2019, dated 2025).

Type in all cases: binding
Experiment [1] concerns the target human STING (HAQ) (Homo sapiens, UniProt Q86WV6, G230A/H232R/R293Q). As to the kind of experiment: Differential scanning fluorimetry (DSF), huSTING (HAQ). The note with it: read-out: DSF huSTING (HAQ) ΔTm (° C.). The method in brief: (§1)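 Recombinant His-TEV-tagged human STING allelic variants expressed in E. coli and purified by IMAC. Thermal unfolding followed by dye fluorescence (excitation 490 nm, emission 570 nm) from 20° C. to 100° C. in 0.5° C. steps, in triplicate, with and without ligand; Tm taken from the transition inflection point.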
(In general: In DSF a fluorescence change marks the thermal transition of the protein.)

Experiment [2] concerns the target T1, human STING (WT) (Homo sapiens (Human), UniProt Q86WV6, H232R). In words: Differential scanning fluorimetry (DSF), huSTING (WT). The settings on record: for ΔTm at 100 µM: read-out: DSF huSTING (WT) ΔTm (° C.). The gist of the method:
as §1

Experiment [3] has as its target T1, human STING (WT). As to the kind of experiment: Surface plasmon resonance (SPR), STING (WT). The settings on record: biotinylated STING on streptavidin chip, 8° C. As for the experimental part:
Biophysical experiments were performed with three different recombinant human STING protein variants designated according to allelic nomenclature of Yi et al., (2013). Codon optimized DNA sequences (for expression in Escherichia coli) encoding amino acid residues 149 to 345 (Swiss Prot Q86WV6) of human STING (WT), human STING (HAQ) and human STING (R232H) were synthesised by GenScript USA Inc (Piscataway, New Jersey, USA). These were ligated into a modified pET43a E. coli expression vector designed to encode N-terminal His tag followed by tobacco etch virus protease (TEV) cleavage site and a STING gene sequence. The resulting protein sequences for the three allelic variants are listed below:
Binding interactions of ligands with STING proteins were quantified using Surface Plasmon Resonance (SPR) with a minimally biotinylated STING protein immobilized on a streptavidin chip surface. […] Minimal biotinylation of purified huSTING proteins was performed using a previously described methodology (Chhabra 2012). Briefly, approximately 20 nmol of recombinant STING protein in 1×TBS buffer (25 mM Tris-HCl, pH 7.5, 150 mM NaCl, 5 mM DTT) was mixed with of EZ-Link™ Sulfo-NHS-LC-LC-Biotin (Thermofisher Scientific, cat #21338) at a molar ratio of 1 to 0.6 and incubated on ice for 2 hours. To remove any unreacted biotin reagent, protein/biotin mixture was passed through a Superdex 75 (10/300 GL) column equilibrated with 10 mM HEPES, pH7.4, 150 mM NaCl, 5 mM DTT, 5%[v/v] glycerol. A protein peak containing biotinylated huSTING protein was collected and stored in aliquots at −80° C.
Streptavidin was simultaneously immobilized in all four channels of a CM5 sensor chip docked in a Biacore instrument (either Biacore S200 or Biacore T200, GE Healthcare) as described previously (Zender 2013). Minimally biotinylated STING protein was captured onto a streptavidin coated chip surface at 8° C. in SPR binding buffer (50 mM HEPES, pH 7.4, 150 mM NaCl, 2%[v/v] DMSO) by gradually injecting in a single channel at a constant flow-rate of 2 μL/min until desired capture level was achieved, typically 3000 to 7000 RU (1 RU=1 pg/mm^2).
All binding experiments were performed at 8° C. in SPR binding buffer. To determine binding affinity, compound interaction with immobilized STING protein was analysed using dose-response experiments. Fresh 10 mM DMSO solutions of compound were diluted directly into SPR binding buffer typically to a concentration of 50 μM and then further diluted 2-fold or 3-fold aiming for either a 5- or 7-point concentration series range. Each ligand concentration series was injected at a constant flow rate of 60 μL/min with a 90 second association and a 180 second dissociation time. These were modified for compounds with longer residence times, so that curves could reach steady-state, or so that compound would be fully dissociated before the subsequent injection.
Scrubber 2 (www.biologic.com.au) was utilized for data processing, where signals were referenced against the blank surface (streptavidin+D-biotin) and further corrected for DMSO refractive index change and then “double-referenced” using a buffer-blank injection (Papalia 2006). Responses were fitted to either a 1:1 steady-state affinity model or a 1:1 kinetic model (that included a mass-transport component), available within Scrubber.
(Surface plasmon resonance follows binding to a sensor surface in real time, without labels.)

[4] abbreviates: 2 μM protein, compound 100 μM, Tm with ligand minus Tm of protein alone (1% DMSO).

Where two headings read alike, the source gives them in different places. Where only a bound is given, the exact number is not on record here.

T1 sequence (Q86WV6 other isoform, or with tags, fused parts or gaps, stated change not applied): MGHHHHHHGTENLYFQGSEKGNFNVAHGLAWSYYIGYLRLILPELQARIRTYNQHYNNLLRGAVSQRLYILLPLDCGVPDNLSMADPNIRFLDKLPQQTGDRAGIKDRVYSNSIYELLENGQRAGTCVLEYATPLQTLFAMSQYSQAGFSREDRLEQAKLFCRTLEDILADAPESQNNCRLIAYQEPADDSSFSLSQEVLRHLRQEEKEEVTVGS
Sequence of human STING (HAQ) (Q86WV6 whole entry G230A/H232R/R293Q, looked up): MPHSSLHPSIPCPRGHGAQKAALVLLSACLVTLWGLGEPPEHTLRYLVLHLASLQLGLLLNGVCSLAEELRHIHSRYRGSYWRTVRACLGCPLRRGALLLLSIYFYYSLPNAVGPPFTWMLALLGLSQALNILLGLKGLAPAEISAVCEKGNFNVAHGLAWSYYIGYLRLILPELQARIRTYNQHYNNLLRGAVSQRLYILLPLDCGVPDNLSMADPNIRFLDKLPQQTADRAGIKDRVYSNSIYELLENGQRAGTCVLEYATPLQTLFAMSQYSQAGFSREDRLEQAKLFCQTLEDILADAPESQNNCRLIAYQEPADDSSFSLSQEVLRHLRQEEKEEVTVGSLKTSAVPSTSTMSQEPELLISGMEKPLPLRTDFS

With `CCc1ccc(-c2nc3c(OC)c(C(N)=O)ccc3n2CCn2c(-c3ccc(CC)cc3C(=O)O)nc3c(OC)c(C(N)=O)ccc32)c(C(=O)O)c1` [Example 33, 6,6′-(Ethane-1,2-diylbis(5-carbamoyl-4-methoxy-1H-benzo[d]imidazole-1,2-diyl))bis(3-ethylbenzoic acid)], the figures for the ΔTm at 100 µM in experiment [1] (setting [4]) and in experiment [2] (setting [4]) were 4.06 °C and 1.17 °C, respectively. For the same molecule, binding in experiment [3] was put at a Kd of 107 µM.

On to `COc1c(C(N)=O)ccc2c1nc(-c1cccc(Br)c1C(=O)O)n2CCn1c(-c2cccc(Br)c2C(=O)O)nc2c(OC)c(C(N)=O)ccc21` [Example 36, 6,6′-(Ethane-1,2-diylbis(5-carbamoyl-4-methoxy-1H-benzo[d]imidazole-1,2-diyl))bis(2-bromobenzoic acid)], for which the ΔTm at 100 µM was 5.24 °C in experiment [1] (setting [4]) and 2.04 °C in experiment [2] (setting [4]). The molecule further returned a Kd in experiment [3] of 58 µM.

`COc1c(C(N)=O)ccc2c1nc(-c1c(F)cc(Cl)cc1-c1nn[nH]n1)n2CCn1c(-c2c(F)cc(Cl)cc2-c2nn[nH]n2)nc2c(OC)c(C(N)=O)ccc21` [Example 46, 1,1′-(Ethane-1,2-diyl)bis(2-(4-chloro-2-fluoro-6-(2H-tetrazol-5-yl)phenyl)-4-methoxy-1H-benzo[d]imidazole-5-carboxamide)]: the ΔTm at 100 µM came out at 28.6 °C in experiment [1] (setting [4]) and 14.4 °C in experiment [2] (setting [4]). In experiment [3], this molecule registered a dissociation constant (Kd) of 0.413 µM.

Take `COc1c(C(N)=O)ccc2c1nc(-c1ccc(Cl)cc1-c1n[nH]c(=O)o1)n2CCn1c(-c2ccc(Cl)cc2-c2n[nH]c(=O)o2)nc2c(OC)c(C(N)=O)ccc21` [Example 17, 1,1′-(Ethane-1,2-diyl)bis(2-(4-chloro-2-(5-oxo-4,5-dihydro-1,3,4-oxadiazol-2-yl)phenyl)-4-methoxy-1H-benzo[d]imidazole-5-carboxamide)]: the ΔTm at 100 µM in experiment [1] (setting [4]) amounted to 11.9 °C; in experiment [2] (setting [4]), 3.05 °C. In experiment [3], the Kd amounted to 9.5 µM.

`COc1c(C(N)=O)ccc2c1nc(-c1cc(F)c(F)cc1C(=O)O)n2CCn1c(-c2cc(F)c(F)cc2C(=O)O)nc2c(OC)c(C(N)=O)ccc21` [Example 15, 6,6′-(Ethane-1,2-diylbis(5-carbamoyl-4-methoxy-1H-benzo[d]imidazole-1,2-diyl))bis(3,4-difluorobenzoic acid)]: the ΔTm at 100 µM is 4.78 °C in experiment [1] and -0.91 °C in experiment [2]. In experiment [3], this molecule had a Kd of 1000 µM.

In the case of `COc1c(C(N)=O)ccc2c1nc(-c1ccccc1-c1nn[nH]n1)n2CCn1c(-c2ccccc2-c2nn[nH]n2)nc2c(OC)c(C(N)=O)ccc21` [Example 6, 1,1′-(Ethane-1,2-diyl)bis(2-(2-(2H-tetrazol-5-yl)phenyl)-4-methoxy-1H-benzo[d]imidazole-5-carboxamide)], the results for the shift in melting temperature (ΔTm) at 100 µM in experiment [1] (setting [4]) and in experiment [2] (setting [4]) were 5.44 °C and 0.94 °C, respectively. For the same molecule, the Kd in experiment [3] is 40 µM.

For the molecule `NC(=O)c1ccc2c(c1)nc(-c1cc(Br)ccc1C(=O)O)n2CCn1c(-c2cc(Br)ccc2C(=O)O)nc2cc(C(N)=O)ccc21` [Example 3, 2,2′-(Ethane-1,2-diylbis(5-carbamoyl-1H-benzo[d]imidazole-1,2-diyl))bis(4-bromobenzoic acid)], the figures for the ΔTm at 100 µM in experiment [1] (setting [4]) and in experiment [2] (setting [4]) were 2.66 °C and -0.02 °C, respectively. The same molecule yielded a Kd in experiment [3] of 700 µM.

For `COC(=O)c1c(Br)cccc1-c1nc2c(OC)c(C(N)=O)ccc2n1CCn1c(-c2cccc(Br)c2C(=O)OC)nc2c(OC)c(C(N)=O)ccc21` [Example 21, Dimethyl 6,6′-(ethane-1,2-diylbis(5-carbamoyl-4-methoxy-1H-benzo[d]imidazole-1,2-diyl))bis(2-bromobenzoate)], the ΔTm at 100 µM in experiment [1] (setting [4]) was found to be 5.83 °C; in experiment [2] (setting [4]), 2.33 °C. In experiment [3], the Kd was 5.38 µM.

Regarding `COc1c(C(N)=O)ccc2c1nc(-c1c(I)cccc1C(=O)O)n2CCn1c(-c2c(I)cccc2C(=O)O)nc2c(OC)c(C(N)=O)ccc21` (single isomer, unassigned) [Example 19.1, 2,2′-(Ethane-1,2-diylbis(5-carbamoyl-4-methoxy-1H-benzo[d]imidazole-1,2-diyl))bis(3-iodobenzoic acid)], in experiment [1] (setting [4]), the ΔTm at 100 µM is 31.7 °C. Also, the “DSF huSTING (WT) ΔTm (° C.)” value in experiment [2] (setting [4]) was found to be 19.29 °C. This molecule also came in with a Kd in experiment [3] of 0.034 µM.

For the molecule `COc1c(C(N)=O)ccc2c1nc(-c1c(F)cccc1C(=O)O)n2CCn1c(-c2c(F)cccc2C(=O)O)nc2c(OC)c(C(N)=O)ccc21` [Example 10, 2,2′-(Ethane-1,2-diylbis(5-carbamoyl-4-methoxy-1H-benzo[d]imidazole-1,2-diyl))bis(3-fluorobenzoic acid)], the ΔTm at 100 µM in experiment [1] (setting [4]) was determined as 18.4 °C; in experiment [2] (setting [4]) it was 9.63 °C. The Kd in experiment [3] was 5.86 µM.

For the molecule `COc1c(C(N)=O)ccc2c1nc(-c1ccc(C)cc1C(=O)O)n2CCn1c(-c2ccc(C)cc2C(=O)O)nc2c(OC)c(C(N)=O)ccc21` [Example 25, 6,6′-(Ethane-1,2-diylbis(5-carbamoyl-4-methoxy-1H-benzo[d]imidazole-1,2-diyl))bis(3-methylbenzoic acid)], the shift in melting temperature (ΔTm) at 100 µM in experiment [1] (setting [4]) was -15.6 °C; in experiment [2] (setting [4]), -18.4 °C. The molecule also showed a Kd in experiment [3] of 250 µM.

`COc1c(C(N)=O)ccc2c1nc(-c1ccc(Cl)cc1C(=O)O)n2CCCn1c(-c2ccc(Cl)cc2C(=O)O)nc2c(OC)c(C(N)=O)ccc21` [Example 35, 6,6′-(Propane-1,3-diylbis(5-carbamoyl-4-methoxy-1H-benzo[d]imidazole-1,2-diyl))bis(3-chlorobenzoic acid)]: the values for the ΔTm at 100 µM in experiment [1] (setting [4]) and in experiment [2] (setting [4]) were 1.28 °C and -2.51 °C, respectively. Further, the Kd in experiment [3] was > 100 µM.

Turning to `COc1c(C(N)=O)ccc2c1nc(-c1c(F)cc(Cl)cc1C(=O)O)n2CCn1c(-c2c(F)cc(Cl)cc2C(=O)O)nc2c(OC)c(C(N)=O)ccc21` [Example 11, 2,2′-(ethane-1,2-diylbis(5-carbamoyl-4-methoxy-1H-benzo[d]imidazole-1,2-diyl))bis(5-chloro-3-fluorobenzoic acid)], the ΔTm at 100 µM in experiment [1] (setting [4]) came to 22.1 °C; in experiment [2] (setting [4]), 10.6 °C. In addition, the affinity in experiment [3], expressed as Kd, was 1.08 µM.

For the molecule `COc1c(C(N)=O)cc(F)c2c1nc(-c1ccc(Cl)cc1C(=O)O)n2CCn1c(-c2ccc(Cl)cc2C(=O)O)nc2c(OC)c(C(N)=O)cc(F)c21` [Example 20, 6,6′-(Ethane-1,2-diylbis(5-carbamoyl-7-fluoro-4-methoxy-1H-benzo[d]imidazole-1,2-diyl))bis(3-chlorobenzoic acid)], the ΔTm at 100 µM is 3.69 °C in experiment [1] (setting [4]) and -3 °C in experiment [2] (setting [4]). In addition, in experiment [3], binding was characterised by a dissociation constant (Kd) of 96 µM.

On to `COc1c(C(N)=O)cc(F)c2c1nc(-c1c(F)cc(F)cc1C(=O)O)n2CCn1c(-c2c(F)cc(F)cc2C(=O)O)nc2c(OC)c(C(N)=O)cc(F)c21` [Example 18, 2,2′-(Ethane-1,2-diylbis(5-carbamoyl-7-fluoro-4-methoxy-1H-benzo[d]imidazole-1,2-diyl))bis(3,5-difluorobenzoic acid)], for which the figures for the ΔTm at 100 µM in experiment [1] (setting [4]) and in experiment [2] (setting [4]) were 19.1 °C and 2.4 °C, respectively. Besides, the Kd in experiment [3] came out at 2.01 µM.

`COc1c(C(N)=O)ccc2c1nc(-c1ccc(Cl)cc1C(=O)O)n2CCn1c(-c2ccc(Cl)cc2C(=O)O)nc2c(OC)c(C(N)=O)ccc21` [Example 1, 6,6′-(Ethane-1,2-diylbis(5-carbamoyl-4-methoxy-1H-benzo[d]imidazole-1,2-diyl))bis(3-chlorobenzoic acid)]: the ΔTm at 100 µM in experiment [1] (setting [4]) was 9.44 °C; in experiment [2] (setting [4]), 5.07 °C. In addition, in experiment [3], the Kd is 200 µM.

Usually ΔTm stands for the shift of the melting midpoint relative to a reference. A word on the Kd: it is the free concentration of one partner at which half of the binding sites on the other are occupied at equilibrium, for simple one-to-one binding. Low values mean higher affinity, high ones lower affinity.
